Experimental data published in patent US20240270751A1, “Pyrazolopyridinone Compounds” (BeiGene Ltd., priority 2021, published 2024).

Key:
[1] = target: DGKα (Homo sapiens (Human), UniProt P23743); assay: Biochemical DGK IC50 assay, DGKα ADP-Glo assay; settings: 7.5 nM enzyme, 140 μM ATP, 80 μM DAG
How it was run: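 Compounds at final 1.55˜10000 nM or 23.3˜150000 nM were tested against full-length DGKα. Substrate was lipid micelles of DAG and PS resuspended in 25 mM HEPES pH 7.0 with 0.5 mM EDTA and 160 mM octyl β-D-glucopyranoside. ADP formed was detected by ADP-Glo.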

[2] = target: DGKζ (Homo sapiens (Human), UniProt Q13574); assay: Biochemical DGK IC50 assay, DGKζ ADP-Glo assay; settings: 0.5 nM enzyme, 140 μM ATP, 80 μM DAG; read-out: DGKζ ADP-Glo assay IC50
How it was run: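 ADP formation measured by ADP-Glo luminescence, with test compounds at final 1.55–10000 nM or 23.3–150000 nM. Enzyme: purified full-length human DGKζ from Sf9 insect cells; substrate: DAG/PS micelles in 25 mM HEPES pH 7.0, 0.5 mM EDTA, octyl glucoside.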

DGKζ, sequence (Q13574 other isoform, or with tags, fused parts or gaps): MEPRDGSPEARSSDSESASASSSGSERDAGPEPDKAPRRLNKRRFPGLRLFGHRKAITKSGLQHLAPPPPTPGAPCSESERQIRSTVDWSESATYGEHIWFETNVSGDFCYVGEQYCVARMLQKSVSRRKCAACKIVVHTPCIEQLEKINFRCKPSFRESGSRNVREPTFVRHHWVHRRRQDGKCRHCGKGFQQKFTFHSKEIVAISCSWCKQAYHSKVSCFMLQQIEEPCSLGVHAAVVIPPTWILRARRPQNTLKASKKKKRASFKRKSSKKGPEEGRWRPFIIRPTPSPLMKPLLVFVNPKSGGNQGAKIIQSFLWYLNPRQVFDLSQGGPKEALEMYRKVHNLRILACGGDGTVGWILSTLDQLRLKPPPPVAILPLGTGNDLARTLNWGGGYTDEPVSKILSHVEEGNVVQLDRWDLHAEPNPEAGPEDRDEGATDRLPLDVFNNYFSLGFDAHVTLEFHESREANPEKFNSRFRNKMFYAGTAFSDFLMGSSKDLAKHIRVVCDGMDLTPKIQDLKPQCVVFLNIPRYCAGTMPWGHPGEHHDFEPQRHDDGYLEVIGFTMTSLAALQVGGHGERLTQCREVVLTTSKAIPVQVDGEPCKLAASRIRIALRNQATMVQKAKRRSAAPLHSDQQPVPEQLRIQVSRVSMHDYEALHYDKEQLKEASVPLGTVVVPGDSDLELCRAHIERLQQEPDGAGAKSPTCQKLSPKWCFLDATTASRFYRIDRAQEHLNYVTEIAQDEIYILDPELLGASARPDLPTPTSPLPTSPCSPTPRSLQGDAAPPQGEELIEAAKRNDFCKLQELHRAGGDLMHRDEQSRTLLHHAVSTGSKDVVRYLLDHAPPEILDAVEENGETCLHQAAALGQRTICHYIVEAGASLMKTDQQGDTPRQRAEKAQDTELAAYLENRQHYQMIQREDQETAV
DGKα, sequence (P23743 whole entry): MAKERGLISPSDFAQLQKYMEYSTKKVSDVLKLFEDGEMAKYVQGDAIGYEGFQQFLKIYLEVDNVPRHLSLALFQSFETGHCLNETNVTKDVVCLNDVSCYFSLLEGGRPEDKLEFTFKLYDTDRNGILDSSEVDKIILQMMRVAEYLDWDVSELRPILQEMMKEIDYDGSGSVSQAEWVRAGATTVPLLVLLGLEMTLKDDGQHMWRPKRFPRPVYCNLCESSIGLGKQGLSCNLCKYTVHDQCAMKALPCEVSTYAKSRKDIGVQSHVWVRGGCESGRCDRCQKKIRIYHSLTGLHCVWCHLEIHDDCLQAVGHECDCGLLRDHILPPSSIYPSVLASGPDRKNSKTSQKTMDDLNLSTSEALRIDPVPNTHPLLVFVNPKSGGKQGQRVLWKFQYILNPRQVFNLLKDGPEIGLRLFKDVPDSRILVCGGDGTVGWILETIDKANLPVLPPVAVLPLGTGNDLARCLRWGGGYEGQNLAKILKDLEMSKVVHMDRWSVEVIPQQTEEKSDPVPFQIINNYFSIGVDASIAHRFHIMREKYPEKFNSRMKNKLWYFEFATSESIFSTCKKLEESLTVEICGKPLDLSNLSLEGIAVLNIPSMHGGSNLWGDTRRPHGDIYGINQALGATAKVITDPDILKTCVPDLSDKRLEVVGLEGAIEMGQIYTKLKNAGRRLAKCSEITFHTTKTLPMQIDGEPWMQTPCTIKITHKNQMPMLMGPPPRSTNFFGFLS

Structure (SMILES) | IC50 [1] | IC50 [2]
CC[C@H]1CN(C(C)c2ccc(Cl)cc2C(F)(F)F)[C@H](CC)CN1c1cc(=O)n(C)c2cn(CC#N)nc12 (stereo partly drawn) [Compound A277] | > 10 µM | 2.11 µM
CC[C@H]1CN(C(C)c2ccc(F)cc2C#N)[C@H](CC)CN1c1cc(=O)n(C)c2cn(CC#N)nc12 (single isomer, unassigned) [Compound A224a] | 1.09 µM | 0.122 µM
CC[C@H]1CN(C(C)c2ccc(C3CC3)cc2OC)[C@H](CC)CN1c1cc(=O)n(C)c2cn(CC#N)nc12 (single isomer, unassigned) [Compound A199b] | > 10 µM | 0.803 µM
COC1(c2cc(F)ccc2C(C)N2C[C@H](C)N(c3cc(=O)n(C)c4cn(CC#N)nc34)C[C@H]2C)CC1 (stereo partly drawn) [Compound A329, 2-(7-((2S,5R)-4-(1-(4-fluoro-2-(1-methoxycyclopropyl)phenyl)ethyl)-2,5-dimethylpiperazin-1-yl)-4-methyl-5-oxo-4,5-dihydro-2H-pyrazolo[4,3-b]pyridin-2-yl)acetonitrile] | > 150 µM | 0.091 µM
CC#CCn1cc2c(n1)c(N1C[C@@H](C)N([C@@H](C)c3ccc4ncc(C)nc4c3)C[C@@H]1C)cc(=O)n2C [Compound A336] | 1.57 µM | 0.06 µM
C=C(C)n1cc2c(n1)c(N1C[C@@H](CC)N(Cc3ccc(OC(F)(F)F)cc3)C[C@@H]1CC)cc(=O)n2C [Compound A27] | 0.0043 µM | > 10 µM
[2H]C([2H])([2H])c1cnc2ccc(C(C)N3C[C@H](C)N(c4cc(=O)n(C)c5cn(CC#N)nc45)C[C@H]3C)cc2n1 (single isomer, unassigned) [Compound A313a] | 116 µM | 8.29 µM
[2H]C([2H])([2H])n1c(=O)cc(N2C[C@@H](CC)N(C(C)c3ccc4nccnc4c3)C[C@@H]2CC)c2nn(CC#N)cc21 (stereo partly drawn) [Compound A51] | 0.347 µM | 0.0078 µM
CC[C@H]1CN(C(C)c2ccc(F)cc2CO)[C@H](CC)CN1c1cc(=O)n(C)c2cn(CC#N)nc12 (stereo partly drawn) [Compound A152, 2-(7-((2S,5R)-2,5-diethyl-4-(1-(4-fluoro-2-(hydroxymethyl)phenyl)ethyl)piperazin-1-yl)-4-methyl-5-oxo-4,5-dihydro-2H-pyrazolo[4,3-b]pyridin-2-yl)acetonitrile] | 4.38 µM | 1.77 µM
CC[C@@H]1CN(c2cc(=O)n(C)c3cn(CC#N)nc23)CCN1C(C)c1ccc2nccnc2c1 (single isomer, unassigned) [Compound A161b] | 78.2 µM | 0.093 µM
C[C@@H]1CN(c2cc(=O)n(C)c3cn(CC#N)nc23)[C@@H](C)CN1C(C)(C)c1ccc(F)cc1 [Compound A297, 2-(7-((2S,5R)-4-(2-(4-fluorophenyl)propan-2-yl)-2,5-dimethylpiperazin-1-yl)-4-methyl-5-oxo-4,5-dihydro-2H-pyrazolo[4,3-b]pyridin-2-yl)acetonitrile] | 8.18 µM | > 10 µM
CC[C@H]1CN(C(C)c2cnc3ccccc3n2)[C@H](CC)CN1c1cc(=O)n(C)c2cn(CC#N)nc12 (single isomer, unassigned) [Compound A155a] | 0.728 µM | 1.38 µM
CC[C@H]1CN(C(C)c2ccncc2C(F)(F)F)[C@H](CC)CN1c1cc(=O)n(C)c2cn(CC#N)nc12 (stereo partly drawn) [Compound A118] | > 150 µM | 0.185 µM
CC[C@H]1CN(C(C)c2ccc(F)cc2OC)[C@H](CC)CN1c1cc(=O)n(C)c2cn(CC#N)nc12 (single isomer, unassigned) [Compound A71a] | 42 µM | 2.1 µM
CC[C@H]1CN(C(C)c2cc(C)ccc2C(F)(F)F)[C@H](CC)CN1c1cc(=O)n(C)c2cn(CC#N)nc12 (stereo partly drawn) [Compound A114] | > 10 µM | 6.6 µM
COC[C@@H]1CN(c2cc(=O)n(C)c3cn(CC#N)nc23)[C@@H](C)CN1C(C)c1ccc2nccnc2c1 (stereo partly drawn) [Compound A100, 2-(7-((2S,5S)-5-(methoxymethyl)-2-methyl-4-(1-(quinoxalin-6-yl)ethyl)piperazin-1-yl)-4-methyl-5-oxo-4,5-dihydro-2H-pyrazolo[4,3-b]pyridin-2-yl)acetonitrile] | 3.78 µM | 0.2 µM
CC#CCn1cc2c(n1)c(N1C[C@@H](CC)N(C(C)c3ccc4cccnc4c3)C[C@@H]1C)cc(=O)n2C (stereo partly drawn) [Compound A395] | 0.222 µM | 0.272 µM

Structure (SMILES) | IC50 [1] | IC50 [2]
CC[C@H]1CN(C(C)c2cnc(C)c(C)n2)[C@H](CC)CN1c1cc(=O)n(C)c2cn(CC#N)nc12 (single isomer, unassigned) [Compound A355a] | 10.9 µM | 6.42 µM
CC[C@@H]1CN(c2cc(=O)n(C)c3cn(CC#N)nc23)[C@@H](COC)CN1C(C)c1ccc2nccnc2c1 (stereo partly drawn) [Compound A225, 2-(7-((2R,5R)-5-ethyl-2-(methoxymethyl)-4-(1-(quinoxalin-6-yl)ethyl)piperazin-1-yl)-4-methyl-5-oxo-4,5-dihydro-2H-pyrazolo[4,3-b]pyridin-2-yl)acetonitrile] | 7.45 µM | 0.099 µM
Cc1cc2cc(C(C)N3C[C@H](C)N(c4cc(=O)n(C)c5cn(CC#N)nc45)C[C@H]3C)ccc2cn1 (mixture of isomers) [Compound A304, 2-(7-((2S,5R)-2,5-dimethyl-4-(1-(3-methylisoquinolin-6-yl)ethyl)piperazin-1-yl)-4-methyl-5-oxo-4,5-dihydro-2H-pyrazolo[4,3-b]pyridin-2-yl)acetonitrile] | 3.66 µM | 0.763 µM
C[C@@H]1CN(c2nc(=O)n(C)c3c(Cl)n(CC#N)nc23)[C@@H](C)CN1[C@H](C)c1ccc2nccnc2c1 [Compound A245, 2-(3-chloro-7-((2S,5R)-2,5-dimethyl-4-((R)-1-(quinoxalin-6-yl)ethyl)piperazin-1-yl)-4-methyl-5-oxo-4,5-dihydro-2H-pyrazolo[4,3-d]pyrimidin-2-yl)acetonitrile, or 2-(3-chloro-7-((2S,5R)-2,5-dimethyl-4-((S)-1-(quinoxalin-6-yl)ethyl)piperazin-1-yl)-4-methyl-5-oxo-4,5-dihydro-2H-pyrazolo[4,3-d]pyrimidin-2-yl)acetonitrile] | > 10 µM | 0.087 µM
CCCn1c(C(C)N2C[C@H](CC)N(c3cc(=O)n(C)c4cn(CC#N)nc34)C[C@H]2CC)nc2ccccc21 (stereo partly drawn) [Compound A192, 2-(7-((2S,5R)-2,5-diethyl-4-(1-(1-propyl-1H-benzo[d]imidazol-2-yl)ethyl)piperazin-1-yl)-4-methyl-5-oxo-4,5-dihydro-2H-pyrazolo[4,3-b]pyridin-2-yl)acetonitrile] | > 10 µM | 0.059 µM
CC[C@H]1CN(C(C)c2ccn3ncnc3c2)[C@H](CC)CN1c1cc(=O)n(C)c2cn(CC#N)nc12 (stereo partly drawn) [Compound A49] | 0.13 µM | 0.2 µM
CC[C@H]1CN(C(C)c2cnc3ccccc3c2)[C@H](CC)CN1c1cc(=O)n(C)c2cn(CC#N)nc12 (stereo partly drawn) [Compound A56] | 0.56 µM | 0.027 µM
C[C@@H]1CN(c2cc(=O)n(C)c3c(F)nn(CC#N)c23)[C@@H](C)CN1[C@H](C)c1ccc2nccnc2c1 [Compound A258, 2-(7-((2S,5R)-2,5-dimethyl-4-((R)-1-(quinoxalin-6-yl)ethyl)piperazin-1-yl)-3-fluoro-4-methyl-5-oxo-4,5-dihydro-1H-pyrazolo[4,3-b]pyridin-1-yl)acetonitrile, or 2-(7-((2S,5R)-2,5-dimethyl-4-((S)-1-(quinoxalin-6-yl)ethyl)piperazin-1-yl)-3-fluoro-4-methyl-5-oxo-4,5-dihydro-1H-pyrazolo[4,3-b]pyridin-1-yl)acetonitrile] | > 10 µM | > 10 µM
CC[C@H]1CN(C(C)c2nc3cccnc3n2CC)[C@H](CC)CN1c1cc(=O)n(C)c2cn(CC#N)nc12 (single isomer, unassigned) [Compound A185b] | 3.99 µM | 0.034 µM
CC[C@H]1CN(C(C)c2ncc(F)cc2F)[C@H](CC)CN1c1cc(=O)n(C)c2cn(CC#N)nc12 (stereo partly drawn) [Compound A148] | 0.034 µM | 0.19 µM
CC(c1ccc2nccnc2c1)N1C[C@H](C)N(c2cc(=O)n(C)c3cn(CC#N)nc23)C[C@H]1CO (stereo partly drawn) [Compound A99, 2-(7-((2S,5S)-5-(hydroxymethyl)-2-methyl-4-(1-(quinoxalin-6-yl)ethyl)piperazin-1-yl)-4-methyl-5-oxo-4,5-dihydro-2H-pyrazolo[4,3-b]pyridin-2-yl)acetonitrile] | > 10 µM | 2.79 µM
CC(c1ccc2nccnc2c1)N1C[C@H](C)N(c2cc(=O)n(C)c3cn(C4CCC4)nc23)C[C@H]1C (stereo partly drawn) [Compound A14] | 52 µM | 12 µM
CC[C@H]1CN(C(C)c2ncc(OC(F)(F)F)cc2F)[C@H](CC)CN1c1cc(=O)n(C)c2cn(CC#N)nc12 (single isomer, unassigned) [Compound A362a] | 0.922 µM | 2.51 µM
CC[C@H]1CN(C(C)c2ccc3cccnc3c2)[C@H](CC)CN1c1cc(=O)n(C)c2cn(CC#N)nc12 (stereo partly drawn) [Compound A61] | 0.177 µM | 0.0086 µM
COCc1cc(F)ccc1C(C)N1C[C@H](C)N(c2cc(=O)n(C)c3cn(CC#N)nc23)C[C@H]1C (single isomer, unassigned) [Compound A29b] | 4.06 µM | 0.057 µM
CC[C@H]1CN(C(C)c2cnc3ccccc3n2)[C@H](CC)CN1c1cc(=O)n(C)c2cn(CC#N)nc12 (single isomer, unassigned) [Compound A155b] | 0.032 µM | 0.0076 µM
